Converted amounts (≈) assume the structure as drawn. The source made the active and inactive calls. No cut-off for these calls is given here.
Legend:
[1] = system: Monilinia laxa; experiment: Fungicidal activity against Monilinia laxa isolate MLK10 assessed as reduction in mycelial growth rate at 25 degC after 4 days; format: functional, organism-based; conditions: isolate MLK10, 96 h
[2] = system: Monilinia laxa; experiment: Fungicidal activity against Monilinia laxa isolate KX3 assessed as reduction in mycelial growth rate at 25 degC after 4 days; format: functional, organism-based; conditions: isolate KX3, 96 h
[3] = system: Monilinia laxa; experiment: Fungicidal activity against Monilinia laxa isolate MLK2 assessed as reduction in mycelial growth rate at 1 to 10 ug/ml at 31 degC after 5 days; format: functional, organism-based
[4] = system: Monilinia laxa; experiment: Fungicidal activity against Monilinia laxa isolate MLX5 assessed as reduction in mycelial growth rate at 25 degC after 4 days; format: functional, organism-based; conditions: isolate MLX5, 96 h
[5] = system: Monilinia laxa; experiment: Fungicidal activity against Monilinia laxa isolate MLK8 assessed as reduction in mycelial growth rate at 25 degC after 4 days; format: functional, organism-based; conditions: isolate MLK8, 96 h
[6] = system: Monilinia laxa; experiment: Fungicidal activity against Monilinia laxa isolate MLK2 assessed as reduction in mycelial growth rate at 1 to 10 ug/ml at 25 to 28 degC; format: functional, organism-based
[7] = system: Monilinia laxa; experiment: Fungicidal activity against Monilinia laxa isolate MLP2 assessed as reduction in mycelial growth rate at 1 to 10 ug/ml at 31 degC after 5 days; format: functional, organism-based
[8] = system: Monilinia laxa; experiment: Fungicidal activity against Monilinia laxa isolate MLBO2 assessed as reduction in mycelial growth rate at 25 degC after 4 days; format: functional, organism-based; conditions: isolate MLBO2, 96 h
[9] = system: Monilinia laxa; experiment: Fungicidal activity against Monilinia laxa isolate MLKS2 assessed as reduction in mycelial growth rate at 25 degC after 4 days; format: functional, organism-based; conditions: isolate MLKS2, 96 h
[10] = system: Monilinia laxa; experiment: Fungicidal activity against Monilinia laxa isolate MLBO2 assessed as virulence in prune fruits assessed as virulence treated 10 min prior to mycelial inoculation at 24 degC after 10 days relative to isolate MLX1by pathogenicity bioassay; format: functional
[11] = system: Monilinia laxa; experiment: Fungicidal activity against Monilinia laxa isolate MLA1 assessed as reduction in mycelial growth rate at 25 degC after 4 days; format: functional, organism-based; conditions: isolate MLA1, 96 h
[12] = system: Monilinia laxa; experiment: Fungicidal activity against Monilinia laxa isolate MLC5 assessed as reduction in mycelial growth rate at 1 to 10 ug/ml at 31 degC after 5 days; format: functional, organism-based
[13] = system: Monilinia laxa; experiment: Fungicidal activity against Monilinia laxa isolate MLBO1 assessed as reduction in mycelial growth rate at 25 degC after 4 days; format: functional, organism-based; conditions: isolate MLBO1, 96 h
[14] = system: Monilinia laxa; experiment: Fungicidal activity against Monilinia laxa isolate MLX1 assessed as mycelial growth at 1 ug/ml at 25 degC after 4 days; format: functional
[15] = system: Monilinia laxa; experiment: Fungicidal activity against Monilinia laxa isolate MLX3 assessed as reduction in mycelial growth rate at 25 degC after 4 days; format: functional, organism-based; conditions: isolate MLX3, 96 h
[16] = system: Monilinia laxa; experiment: Fungicidal activity against Monilinia laxa isolate MLK9 assessed as reduction in mycelial growth rate at 25 degC after 4 days; format: functional, organism-based; conditions: isolate MLK9, 96 h
[17] = system: Monilinia laxa; experiment: Fungicidal activity against Monilinia laxa isolate MLK6 assessed as reduction in mycelial growth rate at 1 to 10 ug/ml at 31 degC after 5 days; format: functional, organism-based
[18] = system: Monilinia laxa; experiment: Fungicidal activity against Monilinia laxa isolate MLK1 assessed as reduction in mycelial growth rate at 25 degC after 4 days; format: functional, organism-based; conditions: isolate MLK1, 96 h
[19] = system: Monilinia laxa; experiment: Fungicidal activity against Monilinia laxa isolate MLK5 assessed as reduction in mycelial growth rate at 1 to 10 ug/ml at 31 degC after 5 days; format: functional, organism-based
[20] = system: Monilinia laxa; experiment: Fungicidal activity against Monilinia laxa isolate MLG1 assessed as mean number of conidia produced in the colony at 25 degC after 12 days by haemocytometer; format: functional
[21] = system: Monilinia laxa; experiment: Fungicidal activity against Monilinia laxa isolate MLC6 assessed as reduction in mycelial growth rate at 25 degC after 4 days; format: functional, organism-based; conditions: isolate MLC6, 96 h
[22] = system: Monilinia laxa; experiment: Fungicidal activity against Monilinia laxa isolate MLX5 assessed as mycelial growth at 1 ug/ml at 25 degC after 4 days; format: functional
[23] = system: Monilinia laxa; experiment: Fungicidal activity against Monilinia laxa isolate MLG5 assessed as reduction in mycelial growth rate at 25 degC after 4 days; format: functional, organism-based; conditions: isolate MLG5, 96 h
[24] = system: Monilinia laxa; experiment: Fungicidal activity against Monilinia laxa isolate MLG7 assessed as reduction in mycelial growth rate at 1 to 10 ug/ml at 31 degC after 5 days; format: functional, organism-based
[25] = system: Monilinia laxa; experiment: Fungicidal activity against Monilinia laxa isolate MLBO2 assessed as mean number of conidia produced in the colony at 25 degC after 12 days by haemocytometer; format: functional
[26] = system: Monilinia laxa; experiment: Fungicidal activity against Monilinia laxa isolate MLBO5 assessed as virulence in prune fruits assessed as virulence treated 10 min prior to mycelial inoculation at 24 degC after 10 days relative to isolate MLX1by pathogenicity bioassay; format: functional
[27] = system: Monilinia laxa; experiment: Fungicidal activity against Monilinia laxa isolate MLC2 assessed as mean mycelial colony diameter at 25 degC after 4 days; format: functional
[28] = system: Monilinia laxa; experiment: Fungicidal activity against Monilinia laxa isolate MLAl8 assessed as reduction in mycelial growth rate at 25 degC after 4 days; format: functional, organism-based; conditions: isolate MLAl8, 96 h
[29] = system: Monilinia laxa; experiment: Fungicidal activity against Monilinia laxa isolate MLX1 assessed as mean number of conidia produced in the colony at 25 degC after 12 days by haemocytometer; format: functional
[30] = system: Monilinia laxa; experiment: Fungicidal activity against Monilinia laxa isolate MLK5 assessed as reduction in mycelial growth rate at 25 degC after 4 days; format: functional, organism-based; conditions: isolate MLK5, 96 h
[31] = system: Monilinia laxa; experiment: Fungicidal activity against Monilinia laxa isolate MLP4 assessed as mean mycelial colony diameter at 25 degC after 4 days; format: functional
[32] = system: Monilinia laxa; experiment: Fungicidal activity against Monilinia laxa isolate MLNS2 assessed as reduction in mycelial growth rate at 1 to 10 ug/ml at 28 degC after 8 days; format: functional, organism-based
[33] = system: Monilinia laxa; experiment: Fungicidal activity against Monilinia laxa isolate MLK5 assessed as reduction in mycelial growth rate at 1 to 10 ug/ml at 28 degC after 8 days; format: functional, organism-based
[34] = system: Monilinia laxa; experiment: Fungicidal activity against Monilinia laxa isolate MLP4 assessed as reduction in mycelial growth rate at 1 to 10 ug/ml at 28 degC after 8 days; format: functional, organism-based
[35] = system: Monilinia laxa; experiment: Fungicidal activity against Monilinia laxa isolate MLX5 assessed as reduction in mycelial growth rate at 1 to 10 ug/ml at 31 degC after 5 days; format: functional, organism-based
[36] = system: Monilinia laxa; experiment: Fungicidal activity against Monilinia laxa isolate MLC6 assessed as reduction in mycelial growth rate at 1 to 10 ug/ml at 31 degC after 5 days; format: functional, organism-based
[37] = system: Monilinia laxa; experiment: Fungicidal activity against Monilinia laxa isolate MLK1 assessed as virulence in prune fruits assessed as virulence treated 10 min prior to mycelial inoculation at 24 degC after 10 days relative to isolate MLX1by pathogenicity bioassay; format: functional
[38] = system: Monilinia laxa; experiment: Fungicidal activity against Monilinia laxa isolate MLP4 assessed as mean number of conidia produced in the colony at 25 degC after 12 days by haemocytometer; format: functional
[39] = system: Monilinia laxa; experiment: Fungicidal activity against Monilinia laxa isolate MLAl8 assessed as reduction in mycelial growth rate at 1 to 10 ug/ml at 28 degC after 8 days; format: functional, organism-based
[40] = system: Monilinia laxa; experiment: Fungicidal activity against Monilinia laxa isolate MLK4 assessed as reduction in mycelial growth rate at 1 to 10 ug/ml at 31 degC after 5 days; format: functional, organism-based
[41] = system: Monilinia laxa; experiment: Fungicidal activity against Monilinia laxa isolate KX5 assessed as reduction in mycelial growth rate at 25 degC after 4 days; format: functional, organism-based; conditions: isolate KX5, 96 h
[42] = system: Monilinia laxa; experiment: Fungicidal activity against Monilinia laxa isolate MLB1 assessed as reduction in mycelial growth rate at 25 degC after 4 days; format: functional, organism-based; conditions: isolate MLB1, 96 h

SMILES: COC(=O)Nc1nc2ccccc2[nH]1 [CARBENDAZIM]
- EC50 [1]: 0.07 µg/mL (≈ 0.366 µM)
- EC50 [2]: 0.09 µg/mL (≈ 0.471 µM)
- inhibition [3]: Active
- EC50 [4]: > 50 µg/mL
- EC50 [5]: 0.09 µg/mL (≈ 0.471 µM)
- inhibition [6]: inactive
- inhibition [7]: Active
- EC50 [8]: 0.18 µg/mL (≈ 0.941 µM)
- EC50 [9]: 0.01 µg/mL (≈ 0.0523 µM)
- Activity [10]: 95%
- EC50 [11]: 0.06 µg/mL (≈ 0.314 µM)
- inhibition [12]: Active
- EC50 [13]: 0.11 µg/mL (≈ 0.575 µM)
- Activity [14]: 100%
- EC50 [15]: > 50 µg/mL
- EC50 [16]: 0.08 µg/mL (≈ 0.418 µM)
- inhibition [17]: Active
- EC50 [18]: > 50 µg/mL
- inhibition [19]: Active
- Activity [20]: 5.85 /cm2
- EC50 [21]: 0.12 µg/mL (≈ 0.628 µM)
- Activity [22]: 0%
- EC50 [23]: 0.09 µg/mL (≈ 0.471 µM)
- inhibition [24]: Active
- Activity [25]: 3.54 /cm2
- Activity [26]: 100%
- Activity [27]: 29.5 mm
- EC50 [28]: > 50 µg/mL
- Activity [29]: 4 /cm2
- EC50 [30]: > 50 µg/mL
- Activity [31]: 32.5 mm
- inhibition [32]: inactive
- inhibition [33]: inactive
- inhibition [34]: inactive
- inhibition [35]: Active
- inhibition [36]: Active
- Activity [37]: 97.77%
- Activity [38]: 3.98 /cm2
- inhibition [39]: inactive
- inhibition [40]: Active
- EC50 [41]: > 50 µg/mL
- EC50 [42]: > 50 µg/mL

Source: ChEMBL document CHEMBL3046319, “PCR-RFLP detection of the E198A mutation conferring resistance to benzimidazoles in field isolates of Monilinia laxa from Greece” (Crop Prot, 2012)
